10 compounds from BindingDB's records for doi:10.1016/j.bioorg.2017.01.003 (Comsats Institute of Information Technology, 2017) can be followed below.

Experiment [1] concerns the target Intestinal-type alkaline phosphatase (Bos taurus, UniProt P19111). Put plainly: Alkaline Phosphatase Assay. The settings on record: pH 9.8; 37 °C. The protocol:
Alkaline phosphatase assay was optimized and performed in the same way as previously reported method with slight modifications [Sergienko et al., Nat. Protoc., 5:1431-1439]. All compounds were analyzed at a final concentration of 200 μM (1% DMSO) by using assay buffer with composition of […] diethanolamine (DEA) (pH 9.8), 0.05 mM ZnCl2 and 2.5 mM MgCl2. The total reaction volume was kept 50 μL containing 10 μL of tested compound, 20 μL of b-TNAP (1:800 (0.8 units/mL) diluted enzyme in assay buffer) or c-IAP (1:800 (1 units/mL) diluted enzyme in assay buffer). After incubation for 3-5 min at 37 °C., the luminescence was measured as a pre-read using microplate reader (BioTek FLx800, Instruments, Inc. USA). Then, 20 μL of substrate (CDPstar®) (final concentration of 110 μM) was added to the reaction mixture to initiate the enzymatic reaction. The change in the luminescence was recorded after 15 min. at 37 °C. The activity of each compound was measured in comparison with control (without any inhibitor). Levamisole (2 mM per well) and L-phenylalanine (4 mM per well) were used as standards (positive control) against b-TNAP) and c-IAP), respectively.

The target of experiment [2] is 5'-nucleotidase (Homo sapiens, UniProt P21589). Put plainly: Ecto-5'-Nucleotidase Inhibition Assay. The following applies: pH 7.4; 37 °C. The protocol: (§1) Then the mixture was placed in water bath at 99 °C for 20 min to stop the enzymatic reaction by thermal denaturation of protein. The aliquots of 50 μL of this reaction mixture were transferred into CE mini vials and injected hydrodynamically into the capillary under pressure of 0.5 psi for 5 s, followed by the application of 15 kV voltage for separation of substrate and product peaks.

The target in experiment [3] is T1, 5'-nucleotidase (Rattus norvegicus, UniProt P21588).
T1 sequence (P21588 whole entry): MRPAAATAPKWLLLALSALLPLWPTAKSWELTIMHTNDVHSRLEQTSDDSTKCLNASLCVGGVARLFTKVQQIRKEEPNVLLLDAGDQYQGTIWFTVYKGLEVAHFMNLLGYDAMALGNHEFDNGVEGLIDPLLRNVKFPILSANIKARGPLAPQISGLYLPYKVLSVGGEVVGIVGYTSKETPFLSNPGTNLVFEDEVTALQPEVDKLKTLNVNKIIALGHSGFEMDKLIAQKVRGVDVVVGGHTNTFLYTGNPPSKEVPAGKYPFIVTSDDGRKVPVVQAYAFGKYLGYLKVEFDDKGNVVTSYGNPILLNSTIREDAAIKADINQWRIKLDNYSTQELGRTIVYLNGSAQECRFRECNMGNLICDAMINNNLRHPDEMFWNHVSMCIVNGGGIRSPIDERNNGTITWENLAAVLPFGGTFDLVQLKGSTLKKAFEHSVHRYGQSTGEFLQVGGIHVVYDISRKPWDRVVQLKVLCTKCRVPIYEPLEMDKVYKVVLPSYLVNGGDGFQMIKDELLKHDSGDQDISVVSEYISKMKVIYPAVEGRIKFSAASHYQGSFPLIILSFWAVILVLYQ
Put plainly: Ecto-5'-Nucleotidase Inhibition Assay. The settings on record: pH 7.4; 37 °C. As for the experimental part:
as §1

Experiment [4] in a line: Alkaline Phosphatase Assay. The settings on record: pH 9.8; 37 °C.

pIC50: −log10 of the molar value.

Chain of 5'-nucleotidase (Homo sapiens, UniProt P21589) (P21589 whole entry): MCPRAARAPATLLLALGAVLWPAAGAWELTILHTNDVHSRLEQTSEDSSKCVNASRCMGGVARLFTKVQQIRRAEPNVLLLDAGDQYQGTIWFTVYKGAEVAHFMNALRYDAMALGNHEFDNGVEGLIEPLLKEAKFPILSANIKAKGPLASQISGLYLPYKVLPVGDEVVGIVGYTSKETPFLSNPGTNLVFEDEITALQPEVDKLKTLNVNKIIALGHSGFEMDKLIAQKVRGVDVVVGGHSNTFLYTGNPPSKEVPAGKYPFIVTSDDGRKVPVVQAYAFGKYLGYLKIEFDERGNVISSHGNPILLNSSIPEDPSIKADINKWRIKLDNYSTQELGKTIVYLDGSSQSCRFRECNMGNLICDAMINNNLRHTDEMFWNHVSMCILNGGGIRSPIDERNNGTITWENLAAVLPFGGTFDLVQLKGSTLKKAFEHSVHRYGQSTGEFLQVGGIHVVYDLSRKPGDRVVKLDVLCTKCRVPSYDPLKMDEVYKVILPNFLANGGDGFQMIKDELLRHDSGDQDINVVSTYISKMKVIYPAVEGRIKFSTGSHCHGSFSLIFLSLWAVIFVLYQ
Chain of Intestinal-type alkaline phosphatase (P19111 whole entry): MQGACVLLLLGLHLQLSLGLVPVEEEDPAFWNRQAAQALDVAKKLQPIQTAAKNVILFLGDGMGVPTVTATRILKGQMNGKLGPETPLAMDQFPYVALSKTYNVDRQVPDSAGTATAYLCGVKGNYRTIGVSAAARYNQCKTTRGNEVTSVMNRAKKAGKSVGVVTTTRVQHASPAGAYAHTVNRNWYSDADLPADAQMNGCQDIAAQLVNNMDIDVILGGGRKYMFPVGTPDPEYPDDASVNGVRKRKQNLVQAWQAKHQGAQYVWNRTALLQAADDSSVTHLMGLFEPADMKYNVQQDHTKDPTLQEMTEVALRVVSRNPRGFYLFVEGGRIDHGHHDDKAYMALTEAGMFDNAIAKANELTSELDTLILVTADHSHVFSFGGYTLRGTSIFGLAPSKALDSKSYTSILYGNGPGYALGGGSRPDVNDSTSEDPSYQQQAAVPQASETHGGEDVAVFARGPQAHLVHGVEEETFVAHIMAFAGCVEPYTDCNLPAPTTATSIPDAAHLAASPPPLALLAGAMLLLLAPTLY

`NS(=O)(=O)c1ccc(N/N=C(/C(=O)/C=C/c2ccccc2F)N2CCOCC2)cc1` [(Z)-4-(2-((E)-4-(2-fluorophenyl)-1-morpholino-2-oxobut-3-enylidene)hydrazinyl) benzene-sulfonamide (4g)] gave a negative-log IC50 (pIC50) in experiment [1] of 6.36.

As for `NS(=O)(=O)c1ccc(N/N=C(/C(=O)/C=C/c2ccc(Cl)cc2Cl)N2CCOCC2)cc1` [(Z)-4-(2-((E)-4-(2,4-dichlorophenyl)-1-morpholino-2-oxobut-3-enylidene)hydrazinyl) benzenesulfonamide (4b)], the negative-log IC50 (pIC50) on 5'-nucleotidase [2] was 5.48; against 5'-nucleotidase [3], 5.55; in experiment [1], 6.17.

In turn, `NS(=O)(=O)c1ccc(N/N=C(/C(=O)/C=C/c2cccc([N+](=O)[O-])c2)N2CCOCC2)cc1` [(Z)-4-(2-((E)-1-morpholino-4-(3-Nitrophenyl)-2-oxobut-3-enylidene)hydrazinyl) benzenesulfonamide (4j)] showed a pIC50 in experiment [1] of 6.13.

Regarding `NS(=O)(=O)c1ccc(N/N=C(/C(=O)/C=C/c2ccccc2Br)N2CCOCC2)cc1` [(Z)-4-(2-((E)-4-(2-bromophenyl)-1-morpholino-2-oxobut-3-enylidene)hydrazinyl) benzenesulfonamide (4i)], the pIC50 was 5.53 against 5'-nucleotidase [2], 4.65 on 5'-nucleotidase [3] and 5.92 in experiment [1].

`COc1cccc(/C=C/C(=O)/C(=N/Nc2ccc(S(N)(=O)=O)cc2)N2CCOCC2)c1` [(Z)-4-(2-((E)-4-(3-methoxyphenyl)-1-morpholino-2-oxobut-3-enylidene)hydrazinyl) benzenesulfonamide (4c)] gave a pIC50 in experiment [1] of 6.00.

`COc1ccc(/C=C/C(=O)/C(=N/Nc2ccc(S(N)(=O)=O)cc2)N2CCOCC2)cc1` [(Z)-4-(2-((E)-4-(4-methoxyphenyl)-1-morpholino-2-oxobut-3-enylidene)hydrazinyl) benzenesulfonamide (4d)]: the values for the negative logarithm of the IC50 (pIC50) in experiment [1] and in experiment [4] were 5.77 and 6.48, respectively.

`NS(=O)(=O)c1ccc(N/N=C(/C(=O)/C=C/c2cccc(F)c2)N2CCOCC2)cc1` [(Z)-4-(2-((E)-4-(3-fluorophenyl)-1-morpholino-2-oxobut-3-enylidene)hydrazinyl) benzenesulfonamide (4h)]: the pIC50 in experiment [1] is 6.14.

As to `COc1cc(/C=C/C(=O)/C(=N/Nc2ccc(S(N)(=O)=O)cc2)N2CCOCC2)cc(OC)c1OC` [(Z)-4-(2-((E)-1-morpholino-2-oxo-4-(3,4,5-Trimethoxyphenyl)but-3-enylidene) hydrazinyl)benzenesulfonamide (4f)], the negative-log IC50 (pIC50) against 5'-nucleotidase [2] was 5.76; against 5'-nucleotidase [3] it was 6.17; in experiment [1], 5.59.

On to `NS(=O)(=O)c1ccc(N/N=C(/C(=O)/C=C/c2ccccc2Cl)N2CCOCC2)cc1` [(Z)-4-(2-((E)-4-(2-chlorophenyl)-1-morpholino-2-oxobut-3-enylidene)hydrazinyl) benzenesulfonamide (4a)], for which the negative-log IC50 (pIC50) is 4.94 against 5'-nucleotidase [2], 5.19 against 5'-nucleotidase [3] and 6.92 in experiment [1].

As to `COc1ccc(/C=C/C(=O)/C(=N/Nc2ccc(S(N)(=O)=O)cc2)N2CCOCC2)cc1OC` [(Z)-4-(2-((E)-4-(3,4-dimethoxyphenyl)-1-morpholino-2-oxobut-3-enylidene) hydrazinyl) benzenesulfonamide (4e)], the negative-log IC50 (pIC50) against 5'-nucleotidase [3] was 5.13; in experiment [1], 6.46.
